Data: US7968542B2, “Thiophene compounds and thrombopoietin receptor activators” (Nissan Chemical Industries, Ltd., priority 2005, dated 2011)

System: Human bone marrow CD34+ cells
Assay: Megakaryocyte colony stimulating activity (megakaryocyte colony forming method)
Format: cell-based
Settings: 11 days
Protocol: The action of the compounds of Synthetic Examples 1 to 43 of the present invention and Reference Synthetic Examples 29 and 30 on the proliferation, differentiation and maturation of megakaryocyte cells was measured by the megakaryocyte colony forming method using human bone marrow cells. Human bone marrow CD34^+ cells (Cambrex Bio Science Walkersville) were incubated on 2-well chamber slide for 11 days in a CO2 incubator (5% CO2, 37° C.) using MegaCult™-C (StemCell Technologies) containing 0.1% (v/v) of the compounds of Synthetic Examples dissolved in dimethyl sulfoxide. After dehydration and fixation, the cells were stained with an anti-glycoprotein IIb/IIIa antibody in accordance with the instruction by the manufacturer. The colonies consisting of at least 8 stained megakaryocyte cells in each well were counted under a microscope. The megakaryocyte colony counts in at least 2 wells were averaged.

Compound: CC(=NNC(=O)c1ccc(C(=O)N2CCN(C(C)C)CC2)s1)c1csc(-c2ccc(Cl)c(Cl)c2)c1O [Synthetic Ex. 1, 5-(4-isopropylpiperazine-1-carbonyl)thiophene-2-carboxylic acid {1-[5-(3,4-dichlorophenyl)-4-hydroxythiophen-3-yl]ethylidene}hydrazide]
- Megakaryocyte colony count (drug concentration 1 μg/mL): 154

Compound: CC(=NNC(=O)c1ccc(C(=O)NCc2ccno2)s1)c1csc(-c2ccc(Cl)c(Cl)c2)c1O [Synthetic Ex. 35, 5-{1-[5-(3,4-dichlorophenyl)-4-hydroxythiophen-3-yl]ethylidenehydrazinocarbonyl}thiophene-2-carboxylic acid (isoxazol-5-ylmethyl)amide]
- Megakaryocyte colony count (drug concentration 0.1 μg/mL): 135
- Megakaryocyte colony count (drug concentration 1 μg/mL): 153

Compound: CC(=NNC(=O)c1ccc(C(=O)N2CCCC2)s1)c1csc(-c2ccc(C(F)(F)F)cc2)c1O.[K] [Synthetic Ex. 10, 5-(pyrrolidine-1-carbonyl)thiophene-2-carboxylic acid {1-[5-(4-trifluoromethylphenyl)-4-hydroxythiophen-3-yl]ethylidene}hydrazide potassium salt]
- Megakaryocyte colony count (drug concentration 0.1 μg/mL): 105
- Megakaryocyte colony count (drug concentration 1 μg/mL): 208

Compound: CC(=NNC(=O)c1ccc(C(=O)N2CCC(O)C2)s1)c1csc(-c2ccc(Cl)c(Cl)c2)c1O (centres unmarked) [Synthetic Ex. 42, 5-(3-hydroxypyrrolidine-1-carbonyl)thiophene-2-carboxylic acid {1-[5-(3,4-dichlorophenyl)-4-hydroxythiophen-3-yl]ethylidene}hydrazide]
- Megakaryocyte colony count (drug concentration 0.1 μg/mL): 90

Compound: CC(=NNC(=O)c1ccc(C(=O)NCc2ccncc2)s1)c1csc(-c2ccc(Cl)c(Cl)c2)c1O [Synthetic Ex. 30, 5-{1-[5-(3,4-dichlorophenyl)-4-hydroxythiophen-3-yl]ethylidenehydrazinocarbonyl}thiophene-2-carboxylic acid 4-picolylamide]
- Megakaryocyte colony count (drug concentration 0.1 μg/mL): 145
- Megakaryocyte colony count (drug concentration 1 μg/mL): 271

Compound: CC(=NNC(=O)c1ccc(C(=O)NCc2cncn2C)s1)c1csc(-c2ccc(C(F)(F)F)cc2)c1O [Synthetic Ex. 41, 5-{1-[5-(4-trifluoromethylphenyl)-4-hydroxythiophen-3-yl]ethylidenehydrazinocarbonyl}thiophene-2-carboxylic acid (1-methyl-1H-imidazol-5-ylmethyl)amide]
- Megakaryocyte colony count (drug concentration 0.1 μg/mL): 41

Compound: C/C(=N\NC(=O)c1ccc(C(=O)NCc2ccncc2)s1)c1csc(-c2ccc(Cl)cc2)c1O [Synthetic Ex. 24, 5-{1-5-[(4-chlorophenyl)-4-hydroxythiophen-3-yl]ethylidenehydrazinocarbonyl}thiophene-2-carboxylic acid 4-picolylamide]
- Megakaryocyte colony count (drug concentration 1 μg/mL): 164

Compound: CCN(CC)C(=O)c1ccc(C(=O)NN=C(C)c2csc(-c3ccc(Cl)c(Cl)c3)c2O)s1.[K] [Synthetic Ex. 3, 5-{1-[5-(3,4-dichlorophenyl)-4-hydroxythiophen-3-yl]ethylidenehydrazinocarbonyl}thiophene-2-carboxylic acid diethylamide potassium salt]
- Megakaryocyte colony count (drug concentration 1 μg/mL): 348

Compound: CC(=NNC(=O)c1ccc(C(=O)NCc2cc(C)on2)s1)c1csc(-c2ccc(Cl)c(Cl)c2)c1O [Synthetic Ex. 33, 5-{1-[5-(3,4-dichlorophenyl)-4-hydroxythiophen-3-yl]ethylidenehydrazinocarbonyl}thiophene-2-carboxylic acid (5-methylisoxazol-3-ylmethyl)amide]
- Megakaryocyte colony count (drug concentration 0.1 μg/mL): 53

Compound: CC(=NNC(=O)c1ccc(C(=O)NC(C)C)s1)c1csc(-c2ccc(C)c(C)c2)c1O [Synthetic Ex. 28, 5-{1-[5-(3,4-dimethylphenyl)-4-hydroxythiophen-3-yl]ethylidenehydrazinocarbonyl]thiophene-2-carboxylic acid isopropylamide]
- Megakaryocyte colony count (drug concentration 1 μg/mL): 105

Compound: CC(=NNC(=O)c1ccc(C(=O)NCc2cnc(C)cn2)s1)c1csc(-c2ccc(Cl)c(Cl)c2)c1O [Synthetic Ex. 34, 5-{1-[5-(3,4-dichlorophenyl)-4-hydroxythiophen-3-yl]ethylidenehydrazinocarbonyl}thiophene-2-carboxylic acid (5-methylpyrazin-2-ylmethyl)amide]
- Megakaryocyte colony count (drug concentration 0.1 μg/mL): 50
